What was measured:
glioblastoma cells = assay: In vitro treatment of glioblastoma cells; format: cell-based
[1] = molecular target: T1, small intestine mucosal TG2 (Mus musculus, UniProt P21981); assay: Small intestine mucosal TG2 activity after intra-peritoneal dosing; format: in vivo, mice
T1 construct: from tissue; host or cells: mouse small intestinal mucosa
T1 sequence (P21981 1-686): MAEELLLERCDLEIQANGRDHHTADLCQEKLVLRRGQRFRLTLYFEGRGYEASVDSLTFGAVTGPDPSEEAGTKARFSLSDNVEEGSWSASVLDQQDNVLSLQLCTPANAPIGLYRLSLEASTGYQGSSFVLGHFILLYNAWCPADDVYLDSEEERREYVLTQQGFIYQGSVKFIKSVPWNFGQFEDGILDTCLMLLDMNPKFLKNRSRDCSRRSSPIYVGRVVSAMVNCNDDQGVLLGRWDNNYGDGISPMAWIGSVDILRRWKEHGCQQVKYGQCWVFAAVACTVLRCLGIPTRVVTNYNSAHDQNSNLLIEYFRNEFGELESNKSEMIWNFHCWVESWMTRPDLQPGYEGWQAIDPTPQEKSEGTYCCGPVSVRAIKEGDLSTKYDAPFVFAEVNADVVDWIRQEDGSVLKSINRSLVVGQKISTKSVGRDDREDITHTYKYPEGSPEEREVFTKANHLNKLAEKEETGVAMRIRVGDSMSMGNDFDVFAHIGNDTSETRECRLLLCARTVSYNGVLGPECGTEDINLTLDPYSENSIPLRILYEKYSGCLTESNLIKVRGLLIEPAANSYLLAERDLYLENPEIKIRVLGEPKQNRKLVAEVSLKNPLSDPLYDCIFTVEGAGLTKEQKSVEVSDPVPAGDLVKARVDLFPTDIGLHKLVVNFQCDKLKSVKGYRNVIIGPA
Method: FIG. 7: Time dependent inhibition of small intestine mucosal TG2 in mice dosed intra-peritoneally with 60 mg/kg KCC009. Mice were sacrificed at different times, intestinal mucosa were harvested and assayed for TG2 activity.
Due to the absence of an appropriate animal model for Celiac Sprue, the therapeutic benefit of TG2 inhibitors for this disease can only be validated in patients. Our goal is therefore to identify a safe, oral TG2 inhibitor that can block mucosal TG2 activity in the upper small intestine of Celiac Sprue patients. Such an agent could be used in the context of a short (2 week) blinded crossover trial in Celiac Sprue patients to determine if TG2 inhibition protects a Celiac Sprue patient from gluten-induced malabsorption. From available data, KCC009 may be precisely such a compound. […] To test whether orally administered KCC009 can inhibit jejunal TG2 activity, adult male rats were dosed with 35 mg/kg KCC009 in a kneaded gluten vehicle. Animals were sacrificed 1 h after administration of either vehicle-gluten (n=3) or drug-gluten (n=4), and jejunal mucosa was harvested. In vehicle treated animals, jejunal TG2 activity was 21±7 pmol/min/mg protein, whereas in KCC009 treated rats TG2 activity of 5.5±3 pmol/min/mg protein was observed. Thus, a suitable oral formulation may therefore enable local delivery of KCC009 to intestinal mucosa.

[2] = molecular target: T2, recombinant human tissue transglutaminase (Homo sapiens, UniProt P21980); assay: tTGase inhibition assay, residual activity by glutamate dehydrogenase coupled assay; format: biochemical; conditions: dihydroisoxazoles, Table 1
T2 construct: made in house
T2 sequence (P21980 1-687): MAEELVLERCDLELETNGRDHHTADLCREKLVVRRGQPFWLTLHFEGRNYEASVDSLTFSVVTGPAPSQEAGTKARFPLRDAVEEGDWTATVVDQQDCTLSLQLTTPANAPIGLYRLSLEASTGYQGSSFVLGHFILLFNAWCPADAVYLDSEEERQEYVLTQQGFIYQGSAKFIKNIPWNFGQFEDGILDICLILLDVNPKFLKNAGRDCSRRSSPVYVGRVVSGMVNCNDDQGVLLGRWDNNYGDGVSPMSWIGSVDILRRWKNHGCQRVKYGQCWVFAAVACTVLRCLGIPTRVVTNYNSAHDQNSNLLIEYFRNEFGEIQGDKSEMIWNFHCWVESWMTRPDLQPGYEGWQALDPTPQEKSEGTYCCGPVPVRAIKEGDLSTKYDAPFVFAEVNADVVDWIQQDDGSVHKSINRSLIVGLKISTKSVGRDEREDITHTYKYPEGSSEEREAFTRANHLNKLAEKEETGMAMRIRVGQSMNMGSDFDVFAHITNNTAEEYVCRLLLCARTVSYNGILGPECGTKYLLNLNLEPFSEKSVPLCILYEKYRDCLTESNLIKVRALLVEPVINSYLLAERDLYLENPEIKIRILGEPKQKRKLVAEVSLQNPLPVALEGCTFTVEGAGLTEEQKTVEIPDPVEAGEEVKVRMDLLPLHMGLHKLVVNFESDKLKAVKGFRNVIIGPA

B16 mouse melanoma cells = assay: Melanoma cell treatment with KCC009 and/or BCNU; format: cell-based; conditions: 24 h, 1 mM KCC009 alone or with 6.25 μM BCNU
Method: FIG. 6A-6D: Photomicrographs of B16 (mouse melanoma cells) after 24 h treatment with KCC009 and/or BCNU. A) Control; B) 1 mM KCC009 only; C) 6.25 μM BCNU only; D) KCC009+BCNU combination.
Activity of KCC009 against melanomas: Melanomas are cancers of the neural crest-derived cells that provide pigmentation to skin and other tissues. No current treatments substantially enhance patient survival once metastasis has occurred.

HCT-116 = assay: Combination with epothilone C in colon cancer cells; format: cell-based, human; conditions: KCC009 in the 1-100 μM range
[3] = test system: subcutaneous murine DBT glioblastoma tumors; assay: Subcutaneous DBT glioblastoma tumor study with BCNU; conditions: in vivo, combination with BCNU
DBT cells = assay: Clonogenic radiosensitizer assay; format: cell-based, murine
Method: FIG. 2: KCC009 as a radiosensitizer. Cultured DBT cells were treated with radiation alone (3.2 Gy) (left) or radiation plus 0.5 mM KCC009 (right), and plated on soft agar to evaluate cell viability.
In addition to evaluating the chemosensitizing potential of KCC009, this compound's potential as a radiosensitizer was also evaluated. For this clonogenic assays were used to measure colony formation after a single radiation treatment. The studies were performed in triplicate with varying doses of XRT and number of cells plated. […] A representative photo of a clonogenic assay plate treated with X-ray alone compared with a plate pre-treated with 0.5 mM KCC009 plus X-ray is shown in FIG. 2.

O=C(N[C@@H](Cc1ccc(O)cc1)C(=O)NCC1CC(Br)=NO1)OCc1ccccc1 (stereo partly shown) [Compound 59]
apoptosis (glioblastoma cells): promoted apoptosis
changes in levels of survival proteins (glioblastoma cells): markedly decreased levels of phosphorylated Akt, survivin, phosphorylated Bad, and phosphorylated glycogen synthetase kinase 3β; and increased levels of the pro-apoptotic BH3-only protein, Bim
sensitivity to chemotherapeutic agents (glioblastoma cells): enhanced sensitivity to chemotherapeutic agents
time to complete recovery of TG2 activity ([1]; 60 mg/kg intra-peritoneal): ≤ 8 h
inhibition of TG2 activity ([1]; 60 mg/kg intra-peritoneal, short timescale (˜1 h)): strong inhibition of TG2 activity
TG2 inhibition in small intestinal tissue ([1]; mice, preliminary pharmacodynamic study): efficient TG2 inhibition
kinh [2]: 0.86 min⁻¹
kinh/Ki [2]: 2000 min^−1M^−1
sensitivity of melanoma cells (B16 mouse melanoma cells): sensitive
reduction of GI50 for epothilone C (HCT-116): > 2 fold
synergism with BCNU [3]: excellent synergism
enhancement of cell death in response to radiation (DBT cells; 0.5 mM KCC009, 3.2 Gy X-ray): two orders of magnitude
effect of KCC009 alone on cell viability (DBT cells; at corresponding concentrations, no radiation): does not affect cell viability
